Bridge positions count the residues as written; N and C are the ends. Square brackets hold non-standard residues; d marks the D form. Peptide text beside a SMILES is read from it. Trp(7-Me) = Cc1cccc2c(C[C@H](N)C(=O)O)c[nH]c12; 2Nal = N[C@@H](Cc1ccc2ccccc2c1)C(=O)O; AEF = NCCOc1ccc(C[C@H](N)C(=O)O)cc1; Cit = NC(=O)NCCC[C@H](N)C(=O)O; Pen = CC(C)(S)[C@H](N)C(=O)O; αMeK = C[C@](N)(CCCCN)C(=O)O; Aib = CC(C)(N)C(=O)O
Assays:
Type in all cases: in vitro ADME
[1] = Stability in rat plasma; settings: both sexes, SD rat plasma, EDTA, 37° C., read-out: t½: Rat Plasma EDTA (converted)
Description: Peptides of interest (20 μM) were incubated with pre-warmed rat plasma (SD rat, mixed gender pooled, EDTA, filtered through 0.22 μm, BioreclamationIVT) at 37° C. […] Quenched samples were stored at 4° C. until the end of the experiment and centrifuged at 4,000 rpm for 10 minutes. The supernatant were diluted 1:1 with deionized water and analyzed using LC-MS. Percentage remaining at each time point was calculated based on the peak area ratio (analyte over internal standard) relative to the initial level at time zero. Half-lives were calculated by fitting to a first-order exponential decay equation using GraphPad.

[2] = Stability in human fecal homogenate; settings: 20% fecal homogenate (supernatant), pH 6.8, 20% human fecal homogenate, anaerobic, 37° C., read-out: t½: Human Feces anaerobic (converted)
Description: (§1) Centrifuged the homogenate at 2800×g for 15 min. The supernatant is taken out and used for incubations. […] The final test compound concentration was 20 μM.

[3] = Stability in cynomolgus monkey fecal homogenate; settings: 20% fecal homogenate (supernatant), pH 6.8, 20% cynomolgus monkey fecal homogenate, anaerobic, 37° C., read-out: t½: Monkey Feces anaerobic (converted)
Description: as §1

[4] = Stability in simulated intestinal fluid (SIF); settings: simulated intestinal fluid with pancreatin, pH 6.8, 37° C., matrix is 100 fold dilution of standard SIF concentration; for SIF t½: 20 μM
Description: SIF was prepared by adding 6.8 g of monobasic potassium phosphate and 10.0 g of pancreatin to 1.0 L of water. After dissolution, the pH was adjusted to 6.8 using NaOH. DMSO stocks (2 mM) were first prepared for the test compounds. Aliquots of the DMSO solutions were dosed into 6 individual tubes, each containing 0.5 mL of SIF, which is pre-warmed to 37° C. The final test compound concentration was 20 μM. The vials were kept in a benchtop Thermomixer® for the duration of the experiment. At each timepoint (0, 5, 10, 20, 40, 60, or 360 minutes or 24 hours), 1.0 mL of acetonitrile containing 1% formic acid was added to one vial to terminate the reaction. Samples were stored at 4° C. until the end of the experiment. After the final timepoint is sampled, the tubes were mixed and then centrifuged at 3,000 rpm for 10 minutes. Aliquots of the supernatant were removed, diluted 1:1 into distilled water containing internal standard, and analyzed by LCMS/MS. Percent remaining at each timepoint was calculated based on the peak area response ratio of test to compound to internal standard. Time 0 was set to 100%, and all later timepoints were calculated relative to time 0. Half-lives were calculated by fitting to a first-order exponential decay equation using Graphpad.

SMILES	half-life at 20 μM [1] [h]	half-life at 20 μM [2] [h]	half-life at 20 μM [3] [h]	SIF t½ [4] [h]	half-life at 20 μM ([4]; read-out: SIF t½ (converted)) [h]
CC(=O)NCCCC[C@@H]1NC(=O)[C@H](Cc2c[nH]c3c(C)cccc23)NC(=O)[C@H]([C@@H](C)O)NC(=O)[C@H](CCCCNC(C)=O)NC(=O)[C@@H](NC(C)=O)C(C)(C)SSC(C)(C)[C@@H](C(=O)N[C@@H](Cc2ccc(OCCN)cc2)C(=O)N[C@@H](Cc2ccc3ccccc3c2)C(=O)N[C@@](C)(CCCCN)C(=O)N[C@@H](CCCCNC(C)=O)C(=O)N[C@@H](CC(N)=O)C(=O)N[C@H](CC(C)C)C(N)=O)NC1=O [compound 330] (Ac-[Pen]K(Ac)T[Trp(7-Me)]K(Ac)[Pen][AEF][2Nal][αMeK]K(Ac)N[dL]-NH2; disulfide 1-6)	> 24	> 24	> 24	24	–
CC(=O)NCCCC[C@H](NC(=O)[C@](C)(CCCCN)NC(=O)[C@H](Cc1ccc2ccccc2c1)NC(=O)[C@H](Cc1ccc(OCCN)cc1)NC(=O)[C@H]1NC(=O)[C@H](CCC(N)=O)NC(=O)[C@H](Cc2c[nH]c3ccc(C#N)cc23)NC(=O)[C@H]([C@@H](C)O)NC(=O)[C@H](CC(N)=O)NC(=O)[C@@H](NC(C)=O)C(C)(C)SSC1(C)C)C(=O)N[C@@H](CC(N)=O)C(=O)N[C@H](CCCCN)C(N)=O [compound 296]	> 24	> 24	> 24	24	–
CC(=O)NCCCC[C@H](NC(=O)[C@](C)(CCCCN)NC(=O)[C@H](Cc1ccc2ccccc2c1)NC(=O)[C@H](Cc1ccc(OCCN)cc1)NC(=O)[C@H]1NC(=O)[C@H](CCCNC(N)=O)NC(=O)[C@H](Cc2c[nH]c3c(C)cccc23)NC(=O)[C@H]([C@@H](C)O)NC(=O)[C@H](CC(N)=O)NC(=O)[C@@H](NC(C)=O)C(C)(C)SSC1(C)C)C(=O)N[C@@H](CC(N)=O)C(=O)NC(C)(C)C(=O)N[C@@H](CCCNC(=N)N)C(N)=O [compound 343] (Ac-[Pen]NT[Trp(7-Me)][Cit][Pen][AEF][2Nal][αMeK]K(Ac)N[Aib]R-NH2; disulfide 1-6)	> 24	12	–	–	13
CCCCCCCC(=O)NCCCC[C@@H]1NC(=O)[C@H](Cc2c[nH]c3c(C)cccc23)NC(=O)[C@H]([C@@H](C)O)NC(=O)[C@H](CC(N)=O)NC(=O)[C@@H](NC(C)=O)C(C)(C)SSC(C)(C)[C@@H](C(=O)N[C@@H](Cc2ccc(OCCN)cc2)C(=O)N[C@@H](Cc2ccc3ccccc3c2)C(=O)N[C@@](C)(CCCCN)C(=O)N[C@@H](CCCCNC(C)=O)C(=O)N[C@@H](CC(N)=O)C(=O)N[C@H](CC(C)C)C(N)=O)NC1=O [compound 317]	> 24	> 24	> 24	–	–
CC(=O)NCCCC[C@@H]1NC(=O)[C@H](Cc2c[nH]c3c(C)cccc23)NC(=O)[C@H]([C@@H](C)O)NC(=O)[C@@H](CC(N)=O)NC(=O)[C@@H](NC(C)=O)C(C)(C)SSC(C)(C)[C@@H](C(=O)N[C@@H](Cc2ccc(OCCN)cc2)C(=O)N[C@@H](Cc2ccc3ccccc3c2)C(=O)N[C@@](C)(CCCCN)C(=O)N[C@@H](CCCCNC(C)=O)C(=O)N[C@@H](CC(N)=O)C(=O)N[C@H](CC(C)C)C(N)=O)NC1=O [compound 338]	> 24	> 24	> 24	–	–
CC(=O)NCCCC[C@H](NC(=O)[C@](C)(CCCCN)NC(=O)[C@H](Cc1ccc2ccccc2c1)NC(=O)[C@H](Cc1ccc(OCCN)cc1)NC(=O)[C@H]1NC(=O)[C@H](CCCCNC(=O)CC(F)(F)F)NC(=O)[C@H](Cc2c[nH]c3c(C)cccc23)NC(=O)[C@H]([C@@H](C)O)NC(=O)[C@H](CC(N)=O)NC(=O)[C@@H](NC(C)=O)C(C)(C)SSC1(C)C)C(=O)N[C@@H](CC(N)=O)C(=O)N[C@H](CC(C)C)C(N)=O [compound 319]	> 24	> 24	> 24	–	–
